Test results published in PubChem BioAssay AID330 (DTP/NCI, 2004).
Several values for one entry are separate records, joined by “and”; a condition that tells them apart may be missing. Identical values can stand only once. Inconclusive results and toxic doses are left out. The calls were made as follows: active = survival T/C of 150% or more; inactive = T/C below 125% in these data.

Tested on: P388 leukemia ip, CD2F1 mice, survival T/C
Assay: NCI In Vivo Anticancer Drug Screen. Data for tumor model P388 Leukemia (intraperitoneal) in CD2F1 (CDF1) mice
Settings: endpoint: median survival time, higher = longer survival
In short: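 Mice carrying the transplanted tumor received test compound or vehicle. Survival was recorded in each group, and the value is the treated-group measurement divided by that of the vehicle-treated control group.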

[1] = dose: 60.0 mg/kg/injection, schedule: Q01DX005 (ip), vehicle: Klucel (hydroxypropylcellulose) (HPC)
[2] = dose: 120.0 mg/kg/injection, schedule: Q01DX005 (ip), vehicle: Klucel (hydroxypropylcellulose) (HPC)
[3] = dose: 240.0 mg/kg/injection, schedule: Q01DX005 (ip), vehicle: Klucel (hydroxypropylcellulose) (HPC)
[4] = dose: 60.0 mg/kg/injection, schedule: Q01DX005 (ip), vehicle: saline with Tween-80
[5] = dose: 120.0 mg/kg/injection, schedule: Q01DX005 (ip), vehicle: saline with Tween-80
[6] = dose: 240.0 mg/kg/injection, schedule: Q01DX005 (ip), vehicle: saline with Tween-80
[7] = dose: 50.0 mg/kg/injection, schedule: Q01DX009 (ip), vehicle: saline
[8] = dose: 100.0 mg/kg/injection, schedule: Q01DX009 (ip), vehicle: saline
[9] = dose: 200.0 mg/kg/injection, schedule: Q01DX009 (ip), vehicle: saline
[10] = dose: 25.0 mg/kg/injection, schedule: Q01DX009 (ip), vehicle: Klucel (hydroxypropylcellulose) (HPC)
[11] = dose: 50.0 mg/kg/injection, schedule: Q01DX009 (ip), vehicle: Klucel (hydroxypropylcellulose) (HPC)
[12] = dose: 6.25 mg/kg/injection, schedule: Q01DX009 (ip), vehicle: Klucel (hydroxypropylcellulose) (HPC)
[13] = dose: 12.5 mg/kg/injection, schedule: Q01DX009 (ip), vehicle: Klucel (hydroxypropylcellulose) (HPC)

Measured: T/C

O=C1Nc2ccccc2C(=O)C1(Cc1ccccc1)C(=O)c1ccccc1 (centres undefined)
inactive: [1] 99 % of control | [2] 105 % of control | [3] 97 % of control

CCCC(=O)NC
inactive: dose: 25.0 mg/kg/injection, schedule: Q01DX005 (ip), vehicle: saline 102 % of control | dose: 50.0 mg/kg/injection, schedule: Q01DX005 (ip), vehicle: saline 99 % of control | dose: 100.0 mg/kg/injection, schedule: Q01DX005 (ip), vehicle: saline 110 % of control | dose: 200.0 mg/kg/injection, schedule: Q01DX005 (ip), vehicle: saline 104 % of control | dose: 400.0 mg/kg/injection, schedule: Q01DX005 (ip), vehicle: saline 99 % of control

Cc1cc(C)cc(C(=O)NC(c2ccncc2)C2N=C(c3ccccc3)OC2=O)c1 (centres undefined)
inactive: [4] 98 % of control | [5] 94 % of control | [6] 94 % of control

COc1ccccc1N/N=c1\c2nc3ccccc3nc1n(-c1ccccc1C)c(=S)n2-c1ccccn1
inactive: [4] 102 % of control | [5] 96 % of control

O=C1CN(c2cccc(C(F)(F)F)c2)C(=O)CN1/N=C/c1ccc(O)c(O)c1
inactive: dose: 6.25 mg/kg/injection, schedule: Q01DX005 (ip), vehicle: saline with Tween-80 100 % of control | dose: 12.5 mg/kg/injection, schedule: Q01DX005 (ip), vehicle: saline with Tween-80 97 % of control | dose: 25.0 mg/kg/injection, schedule: Q01DX005 (ip), vehicle: saline with Tween-80 96 % of control

C1CN=C(N2CCCC2)C1
inactive: dose: 12.5 mg/kg/injection, schedule: Q01DX009 (ip), vehicle: saline with Tween-80 103 % of control | dose: 25.0 mg/kg/injection, schedule: Q01DX009 (ip), vehicle: saline with Tween-80 94 % of control | dose: 50.0 mg/kg/injection, schedule: Q01DX009 (ip), vehicle: saline with Tween-80 101 % of control and 90 % of control

O=C(NCc1ccco1)Nc1ccccc1[N+](=O)[O-]
inactive: dose: 50.0 mg/kg/injection, schedule: Q01DX005 (ip), vehicle: Klucel (hydroxypropylcellulose) (HPC) 96 % of control | dose: 100.0 mg/kg/injection, schedule: Q01DX005 (ip), vehicle: Klucel (hydroxypropylcellulose) (HPC) 95 % of control | dose: 200.0 mg/kg/injection, schedule: Q01DX005 (ip), vehicle: Klucel (hydroxypropylcellulose) (HPC) 95 % of control

C[N+](C)(N)CCS(N)(=O)=O
inactive: [7] 103 % of control | [8] 103 % of control | [9] 100 % of control

COC(=O)c1cc(=O)n(-c2ccccc2C(F)(F)F)c(SC)n1
inactive: dose: 50.0 mg/kg/injection, schedule: Q04DX003 (ip), vehicle: Klucel (hydroxypropylcellulose) (HPC) 95 % of control and 97 % of control | dose: 100.0 mg/kg/injection, schedule: Q04DX003 (ip), vehicle: Klucel (hydroxypropylcellulose) (HPC) 99 % of control and 100 % of control | dose: 200.0 mg/kg/injection, schedule: Q04DX003 (ip), vehicle: Klucel (hydroxypropylcellulose) (HPC) 104 % of control and 111 % of control | dose: 400.0 mg/kg/injection, schedule: Q04DX003 (ip), vehicle: Klucel (hydroxypropylcellulose) (HPC) 110 % of control

CC1(C)CC(O)(C(Cl)c2ccccc2)C(=O)c2ccccc21 (centres undefined)
inactive: [10] 96 % of control | [11] 93 % of control | dose: 100.0 mg/kg/injection, schedule: Q01DX009 (ip), vehicle: Klucel (hydroxypropylcellulose) (HPC) 93 % of control | dose: 200.0 mg/kg/injection, schedule: Q01DX009 (ip), vehicle: Klucel (hydroxypropylcellulose) (HPC) 94 % of control | dose: 400.0 mg/kg/injection, schedule: Q01DX009 (ip), vehicle: Klucel (hydroxypropylcellulose) (HPC) 86 % of control

O=C1c2ccccc2C(=O)c2c(O)ccc3cccc1c23
inactive: dose: 50.0 mg/kg/injection, schedule: Q01DX005 (ip), vehicle: Klucel + Tween-80 92 % of control | dose: 100.0 mg/kg/injection, schedule: Q01DX005 (ip), vehicle: Klucel + Tween-80 92 % of control | dose: 200.0 mg/kg/injection, schedule: Q01DX005 (ip), vehicle: Klucel + Tween-80 92 % of control

O=c1[nH]c(=O)c2ccccc2o1
inactive: [12] 104 % of control | [13] 111 % of control | [10] 110 % of control | [11] 106 % of control

c1ccc2c(SCCSc3c4ccccc4nc4ccccc34)c3ccccc3nc2c1
inactive: [1] 90 % of control | [2] 96 % of control

c1ccc(-c2n[se]c(-c3ccccc3)n2)cc1
inactive: dose: 12.5 mg/kg/injection, schedule: Q04DX002 (ip), vehicle: saline with Tween-80 102 % of control | dose: 25.0 mg/kg/injection, schedule: Q04DX002 (ip), vehicle: saline with Tween-80 95 % of control | dose: 50.0 mg/kg/injection, schedule: Q04DX002 (ip), vehicle: saline with Tween-80 93 % of control

CCOP(=O)(Cc1cc(=O)oc2cc(OC)ccc12)OCC
inactive: dose: 100.0 mg/kg/injection, schedule: Q01DX001 (ip), vehicle: saline 101 % of control | dose: 200.0 mg/kg/injection, schedule: Q01DX001 (ip), vehicle: saline 100 % of control

Cc1ccc(S(=O)(=O)Nc2cc(S(=O)(=O)O)c(N)c3c2C(=O)c2ccccc2C3=O)cc1
inactive: [7] 86 % of control | [8] 97 % of control | [9] 101 % of control

C/C(=N\NC(=S)N1CC2CCC(CC2)C1)c1ccccn1
inactive: dose: 1.56 mg/kg/injection, schedule: Q01DX009 (ip), vehicle: Klucel (hydroxypropylcellulose) (HPC) 101 % of control and 118 % of control | dose: 3.12 mg/kg/injection, schedule: Q01DX009 (ip), vehicle: Klucel (hydroxypropylcellulose) (HPC) 107 % of control | dose: 3.13 mg/kg/injection, schedule: Q01DX009 (ip), vehicle: Klucel (hydroxypropylcellulose) (HPC) 120 % of control | [12] 115 % of control and 123 % of control | [13] 115 % of control

CC(C)(C)C1=NN=C(C(C)(C)C)CSC1
inactive: [4] 108 % of control | [5] 103 % of control | [6] 104 % of control

CCOc1c(N=Nc2ccccc2[N+](=O)[O-])c(C)nn1C(=S)S
inactive: dose: 60.0 mg/kg/injection, schedule: Q01DX005 (ip), vehicle: Klucel + Tween-80 103 % of control | dose: 120.0 mg/kg/injection, schedule: Q01DX005 (ip), vehicle: Klucel + Tween-80 97 % of control | dose: 240.0 mg/kg/injection, schedule: Q01DX005 (ip), vehicle: Klucel + Tween-80 92 % of control

O=C1C2CCCN2C(=O)N1c1ccc([N+](=O)[O-])cc1 (centres undefined)
inactive: dose: 100.0 mg/kg/injection, schedule: Q01DX001 (ip), vehicle: Klucel (hydroxypropylcellulose) (HPC) 97 % of control | dose: 200.0 mg/kg/injection, schedule: Q01DX001 (ip), vehicle: Klucel (hydroxypropylcellulose) (HPC) 97 % of control | dose: 400.0 mg/kg/injection, schedule: Q01DX001 (ip), vehicle: Klucel (hydroxypropylcellulose) (HPC) 99 % of control

CCC(=O)N=c1sc(SCc2ccccc2)nn1C(=O)SC (tested in a mixture with another compound)
inactive: [1] 95 % of control | [2] 98 % of control | [3] 90 % of control

C=C(C)C(=O)N(CC)CC
inactive: [8] 97 % of control | [9] 102 % of control

COc1cc2c(cc1OC)[C@H]1O[C@H](OC)c3c(ccc4c3OCO4)[C@H]1N(C)CC2
inactive: dose: 7.25 mg/kg/injection, schedule: Q01DX005 (ip), vehicle: Klucel (hydroxypropylcellulose) (HPC) 106 % of control | dose: 14.5 mg/kg/injection, schedule: Q01DX005 (ip), vehicle: Klucel (hydroxypropylcellulose) (HPC) 100 % of control | dose: 29.0 mg/kg/injection, schedule: Q01DX005 (ip), vehicle: Klucel (hydroxypropylcellulose) (HPC) 106 % of control | dose: 58.0 mg/kg/injection, schedule: Q01DX005 (ip), vehicle: Klucel (hydroxypropylcellulose) (HPC) 96 % of control

O=[N+]([O-])/C=C/c1ccc(Cl)cc1Cl
inactive: dose: 20.0 mg/kg/injection, schedule: Q04DX003 (ip), vehicle: saline with Tween-80 118 % of control | dose: 40.0 mg/kg/injection, schedule: Q04DX003 (ip), vehicle: saline with Tween-80 118 % of control | dose: 80.0 mg/kg/injection, schedule: Q04DX003 (ip), vehicle: saline with Tween-80 118 % of control

O=C(CNC(=O)Nc1ccc(Cl)c(Cl)c1)N/N=C/c1c(O)ccc2ccccc12
inactive: dose: 3.75 mg/kg/injection, schedule: Q01DX005 (ip), vehicle: saline with Tween-80 96 % of control | dose: 7.5 mg/kg/injection, schedule: Q01DX005 (ip), vehicle: saline with Tween-80 102 % of control | dose: 15.0 mg/kg/injection, schedule: Q01DX005 (ip), vehicle: saline with Tween-80 88 % of control and 94 % of control | [6] 100 % of control

Cc1ccc([N+](=O)[O-])cc1NC(=O)Nc1onc(C)c1C
inactive: [4] 87 % of control | [5] 93 % of control | [6] 88 % of control
